Earlier results in patent publication US9238024B2, “Methods for improving health in canines” (Quality IP Holdings, LLC, priority 2012, dated 2016).

Experiments:
canines [1] = tested on: canines
canines [2] = tested on: canines; remark: listed apart in the source

| Compound | levels of serum insulin-like growth factor-I (canines [1]; canines) | size and strength of the quadriceps muscle (canines [1]; canines during remobilization) | new bone formation (canines [2]; adult canines of both sexes, exogenous growth hormone) | bone growth factors and fracture healing (canines [2]; canines) | quantity of protein in the blood plasma (canines [2]; canines given growth hormone) |
| --- | --- | --- | --- | --- | --- |
| CC(C)(N)C(=O)N[C@H](COCc1ccccc1)C(=O)N1CCC2(CC1)CN(S(C)(=O)=O)c1ccccc12 [MK-0677] | elevates | increases |  |  |  |
| growth hormone |  |  | marked increase | enhances | increased |
